According to ChEMBL document CHEMBL1201862, “PubChem BioAssay data set” (2004):
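Five compound concentrations were applied to cells in 96-well plates for 48 hours; endpoints were derived by simple linear interpolation of the resulting dose-response curve. GI50 is the concentration that inhibits growth by half.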 Calls of active or inactive are those of the source. Rule as the data show it: active = GI50 up to about 1.1 µM and inactive = higher.

Columns and labels:
Assay in all cases: NCI anticancer screen, dose series, 48 h
[1] = system: ACHN
[2] = system: SF-295
[3] = system: U-251
[4] = system: OVCAR-3
[5] = system: Malme-3M
[6] = system: A498
[7] = system: COLO 205
[8] = system: IGROV-1
[9] = system: UACC-62
[10] = system: HT-29
[11] = system: HOP-92
[12] = system: SNB-75
[13] = system: SF-268
[14] = system: M14
[15] = system: HL-60
[16] = system: EKVX

Measured: GI50

COc1nc(NC2OC(COC(C)=O)C(OC(C)=O)C(OC(C)=O)C2OC(C)=O)c(-c2csc(N)n2)c(=O)n1C (stereo not given)
inactive: [1] 38.4 µM | [2] 68.4 µM | [3] 61.5 µM | [4] 93.3 µM | [5] 26.8 µM | [6] > 100 µM | [7] > 100 µM | [8] > 100 µM | [9] 33.7 µM | [10] > 100 µM | [11] 28.4 µM | [12] 18.4 µM | [13] 25.9 µM | [14] 78.7 µM

ClC(/N=N/c1ccccc1)=N/Nc1ccccc1
inactive: [1] 34.8 µM | [2] 53.8 µM | [3] > 100 µM | [15] > 100 µM | [5] > 100 µM | [6] > 100 µM | [7] > 100 µM | [8] > 100 µM | [16] 96.8 µM | [10] > 100 µM | [11] > 100 µM | [13] 39.2 µM

COc1ccc([C@H]2CC(=O)NCCCCN2)cc1
inactive: [1] > 100 µM | [2] > 100 µM | [3] > 100 µM | [5] > 100 µM | [6] > 100 µM | [7] > 100 µM | [8] > 100 µM | [9] > 100 µM | [16] > 100 µM | [10] > 100 µM | [11] 57.1 µM | [12] 55.2 µM | [13] > 100 µM | [14] > 100 µM

CCN(CC)CCn1c2ccccc2c(=O)c2c(OC)ccc(OC)c21
inactive: [1] 47.9 µM | [2] 61.2 µM | [3] 65.6 µM | [4] > 100 µM | [15] 84.3 µM | [5] 77.4 µM | [6] 97.5 µM | [7] 38.7 µM | [8] > 10 µM | [9] > 10 µM | [16] > 100 µM | [10] 46.9 µM | [11] > 94.2 µM | [13] 55.8 µM | [14] > 100 µM

CCC(CC)n1c(C)nc2c1C(=O)c1ccccc1C2=O
inactive: [1] 41.4 µM | [2] 39.4 µM | [3] 36.5 µM | [4] 26 µM | [15] 10.7 µM | [5] 26.1 µM | [7] 26.9 µM | [8] 71.9 µM | [9] 10.3 µM | [16] 70.5 µM | [10] 33.2 µM | [11] 22.5 µM | [12] 20.6 µM | [13] 49.2 µM | [14] 63.1 µM

COc1cc2c(cc1OC)C(=O)N1CCCC1C(=O)S2 (stereo not given)
inactive: [1] > 100 µM | [2] > 100 µM | [3] > 100 µM | [4] > 100 µM | [15] > 100 µM | [5] > 100 µM | [7] > 100 µM | [8] 19.9 µM | [9] 35.6 µM | [16] > 100 µM | [11] > 100 µM | [13] > 100 µM | [14] > 100 µM

Cc1ccc(NC(=O)CCC(CC(=O)C(C)(C)C)=NNC(=O)C(=O)NN)cc1C
inactive: [1] > 100 µM | [2] > 100 µM | [4] > 100 µM | [15] > 100 µM | [5] > 100 µM | [7] > 100 µM | [8] > 100 µM | [9] > 100 µM | [16] > 100 µM | [10] > 100 µM | [12] > 100 µM | [13] > 100 µM | [14] > 100 µM

Cc1ccc(/N=N/c2ccc(N(CCC#N)CCC#N)cc2C)c(Br)c1
inactive: [1] 15 µM | [2] 18.7 µM | [3] 19.1 µM | [4] 32.6 µM | [15] 5.42 µM | [5] 44.2 µM | [6] 51.9 µM | [7] 38.1 µM | [8] 37.4 µM | [9] 13.5 µM | [16] 41 µM | [10] 3.53 µM | [12] 11.3 µM | [13] 21.1 µM | [14] 20.5 µM

O=C1c2ccccc2C(=O)c2nc3ccc(Cl)cc3cc21
inactive: [1] > 100 µM | [2] 52.5 µM | [3] > 100 µM | [4] > 100 µM | [5] > 100 µM | [7] > 100 µM | [8] > 100 µM | [9] > 100 µM | [16] > 100 µM | [10] > 100 µM | [11] > 100 µM | [12] > 100 µM | [13] > 100 µM | [14] > 100 µM

COc1ccc(/C=C/C(=O)c2sc(N)nc2C)cc1
inactive: [2] > 100 µM | [3] > 100 µM | [4] 41 µM | [15] > 100 µM | [5] > 100 µM | [6] > 100 µM | [7] > 100 µM | [8] > 100 µM | [9] > 100 µM | [16] > 100 µM | [10] > 100 µM | [11] > 100 µM | [12] > 100 µM | [13] > 100 µM

CC(=O)OCC1OC(n2c(=O)[nH]c(=O)c3nn[nH]c32)C(OC(C)=O)C(OC(C)=O)C1OC(C)=O (stereo not given)
inactive: [1] > 100 µM | [2] > 100 µM | [3] > 100 µM | [15] > 100 µM | [5] > 100 µM | [6] > 100 µM | [7] > 100 µM | [8] > 100 µM | [9] > 100 µM | [16] > 100 µM | [10] > 100 µM | [11] > 100 µM | [12] 2.63 µM | [13] > 100 µM | [14] > 100 µM

O=C(N/C(=C\c1ccc(Oc2ccc(Cl)c(Cl)c2)cc1)c1nc2ccccc2[nH]1)c1ccccc1
inactive: [1] 19.7 µM | [2] 15.1 µM | [3] 14.1 µM | [4] 17.3 µM | [5] 20.9 µM | [7] 21.9 µM | [8] > 10 µM | [9] 13.7 µM | [16] 22 µM | [10] 15.5 µM | [11] 10.4 µM | [13] 18.1 µM | [14] 19.5 µM

COC(=O)C1=NC(=S)NC(c2ccccc2)C1c1nc2ccccc2o1 (stereo not given)
inactive: [1] > 50 µM | [2] > 50 µM | [3] > 50 µM | [4] > 50 µM | [15] > 50 µM | [5] > 50 µM | [6] > 50 µM | [7] > 50 µM | [8] > 50 µM | [9] > 50 µM | [16] > 50 µM | [10] > 50 µM | [11] > 50 µM | [13] > 50 µM | [14] > 50 µM

Cc1csc(CCC(N)C(=O)O)n1 (stereo not given)
inactive: [1] > 100 µM | [2] > 100 µM | [3] > 100 µM | [4] > 100 µM | [5] > 100 µM | [7] > 100 µM | [8] > 100 µM | [9] > 100 µM | [16] > 100 µM | [10] > 100 µM | [11] > 100 µM | [12] > 100 µM | [14] > 100 µM
